# Reference: patent US20240294498A1, “FACTOR XIIA INHIBITORS” (Lunac Therapeutics Ltd, priority 2021, published 2024)
# Key:
# Type in all cases: biochemical
# [1] = target: T1, thrombin (Homo sapiens, UniProt P00734); experiment: Determination of selectivity: thrombin inhibition (chromogenic substrate GPR); settings: fold selectivity for FXIIa over thrombin (human); category
# T1 construct: FXa (5 nM) and thrombin (5 nM)
# How it was run: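 Thrombin (5 nM) preincubated with increasing compound concentrations (top 500 μM, 5% DMSO) 10 min at 37 °C in 50 mM Tris, 137 mM NaCl pH 7.4, then GPR chromogenic substrate at its KM. pNA release read kinetically at 405 nm for 3 h at 37 °C. IC50 from initial rates, converted to Ki via Cheng–Prusoff.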
# [2] = target: FXa (Homo sapiens, UniProt P00742); experiment: Determination of selectivity: FXa inhibition (chromogenic substrate S2765); settings: fold selectivity for FXIIa over FXa (human); category
# How it was run: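 FXa (5 nM) preincubated with increasing compound (top 500 μM) for 10 mins at 37° C in 50 mM Tris, 137 mM NaCl pH 7.4, 5% DMSO, then S2765 added at its KM. Absorbance at 405 nm followed kinetically for 3 hours; IC50 from initial rates, converted to Ki by Cheng-Prusoff.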
# [3] = target: T2, FXIIa (Homo sapiens, UniProt P00748); experiment: Determination of Factor XIIa inhibition (chromogenic substrate S-2302); settings: human FXIIa alpha, Ki category
# T2 construct: FXIIa alpha
# T2 sequence (P00748 373-615 limits assumed): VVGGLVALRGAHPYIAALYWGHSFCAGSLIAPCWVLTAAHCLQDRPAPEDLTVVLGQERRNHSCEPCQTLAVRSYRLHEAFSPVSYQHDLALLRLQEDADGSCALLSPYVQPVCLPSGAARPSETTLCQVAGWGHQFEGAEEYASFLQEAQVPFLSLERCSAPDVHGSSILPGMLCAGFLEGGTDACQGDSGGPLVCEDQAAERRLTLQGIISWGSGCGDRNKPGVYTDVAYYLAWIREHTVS
# T2 sequence (P00748 20-372 partner limits assumed): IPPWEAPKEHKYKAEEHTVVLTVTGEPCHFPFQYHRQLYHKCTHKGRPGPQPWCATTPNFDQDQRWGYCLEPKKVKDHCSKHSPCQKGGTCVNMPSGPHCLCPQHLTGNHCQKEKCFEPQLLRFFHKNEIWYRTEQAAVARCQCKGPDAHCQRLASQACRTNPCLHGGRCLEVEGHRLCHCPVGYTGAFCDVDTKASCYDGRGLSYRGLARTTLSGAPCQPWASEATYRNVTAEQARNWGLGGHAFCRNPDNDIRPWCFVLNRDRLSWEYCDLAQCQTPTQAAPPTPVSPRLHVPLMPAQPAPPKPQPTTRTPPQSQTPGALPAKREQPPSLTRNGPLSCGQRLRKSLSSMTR
# How it was run: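 Compound preincubated with 10 nM FXIIa for 10 min at 37° C in 50 mM Tris, 137 mM NaCl, pH 7.4, 5% DMSO, top concentration 500 μM; S-2302 added at Km. pNA release followed at 405 nm for 3 h; IC50 from initial rates, converted to Ki via Ki = IC50/(1+[S]/Km).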
# Chain of FXa (P00742 235-488 limits assumed): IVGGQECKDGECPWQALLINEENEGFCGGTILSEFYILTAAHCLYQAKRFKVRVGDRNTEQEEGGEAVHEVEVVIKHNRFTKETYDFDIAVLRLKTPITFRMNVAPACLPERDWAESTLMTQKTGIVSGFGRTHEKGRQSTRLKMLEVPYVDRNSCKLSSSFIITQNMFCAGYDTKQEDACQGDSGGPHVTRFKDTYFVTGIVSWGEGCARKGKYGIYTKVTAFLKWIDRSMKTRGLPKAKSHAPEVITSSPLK
# Chain of FXa (P00742 41-179 partner limits assumed): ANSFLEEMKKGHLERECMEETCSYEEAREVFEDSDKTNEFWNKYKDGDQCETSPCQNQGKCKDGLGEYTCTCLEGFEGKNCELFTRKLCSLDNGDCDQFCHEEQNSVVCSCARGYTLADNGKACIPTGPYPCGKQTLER
SMILES,Thrombin (human)/FXIIa alpha (human) [1],FXa (human)/FXIIa alpha (human) [2],Ki [3]
"Cn1ncc2cc(CNC(=O)[C@@H]3C[C@@H](Cc4ccccc4C(F)(F)F)CN3C(=O)[C@@H]3NCCC[C@@H]3C(=O)N3CCCC3)ccc21 [Example M05809, (2S,4R)-N-((1-methyl-1H-indazol-5-yl)methyl)-1-((2R,3S)-3-(pyrrolidine-1-carbonyl)piperidine-2-carbonyl)-4-(2-(trifluoromethyl)benzyl)pyrrolidine-2-carboxamide]",+++ (fold selectivity values greater than 100),∘∘∘,200 to 800 nM
"COc1nn(C)c2ccc(CNC(=O)[C@@H]3C[C@@H](Cc4ccc(C)cc4)CN3C(=O)[C@@H]3NCCC[C@@H]3C(=O)N3CCCC3)cc12 [Example M05810, (2S,4R)-N-((3-methoxy-1-methyl-1H-indazol-5-yl)methyl)-4-(4-methylbenzyl)-1-((2R,3S)-3-(pyrrolidine-1-carbonyl)piperidine-2-carbonyl)pyrrolidine-2-carboxamide]",++ (a fold selectivity value of 10 to 100),∘∘,800 to 5000 nM
"Cn1ncc2cc(CNC(=O)[C@@H]3C[C@@H](Cc4ccncc4)CN3C(=O)[C@@H]3NCCC[C@@H]3C(=O)N3CCCC3)ccc21 [Example M05811, (2S,4R)-N-((1-methyl-1H-indazol-5-yl)methyl)-4-(pyridin-4-ylmethyl)-1-((2R,3S)-3-(pyrrolidine-1-carbonyl)piperidine-2-carbonyl)pyrrolidine-2-carboxamide]",++ (a fold selectivity value of 10 to 100),∘∘∘,800 to 5000 nM
"[2H]C([2H])([2H])n1ncc2cc(CNC(=O)[C@@H]3C[C@@H](Cc4ccc(C)cc4)CN3C(=O)[C@@H]3NCCC[C@@H]3C(=O)N3CCCC3)ccc21 [Example M05820, (2S,4R)-N-((1-(methyl-d3)-1H-indazol-5-yl)methyl)-4-(4-methylbenzyl)-1-((2R,3S)-3-(pyrrolidine-1-carbonyl)piperidine-2-carbonyl)pyrrolidine-2-carboxamide]",+++ (fold selectivity values greater than 100),∘∘∘,< 200 nM
"Cn1ncc2cc(CNC(=O)[C@@H]3C[C@@H](Cc4cccc(C(F)(F)F)c4)CN3C(=O)[C@@H]3NCCC[C@@H]3C(=O)N3CCCC3)ccc21 [Example M05836, (2S,4R)-N-((1-methyl-1H-indazol-5-yl)methyl)-1-((2R,3S)-3-(pyrrolidine-1-carbonyl)piperidine-2-carbonyl)-4-(3-(trifluoromethyl)benzyl)pyrrolidine-2-carboxamide]",+++ (fold selectivity values greater than 100),∘∘∘,800 to 5000 nM
"CO[C@H]1CCN(C(=O)[C@H]2CCCN[C@H]2C(=O)N2C[C@H](Cc3ccc(C)cc3)C[C@H]2C(=O)NCc2ccc3c(cnn3C)c2)C1 [Example M05837, (2S,4R)-1-((2R,3S)-3-((S)-3-methoxypyrrolidine-1-carbonyl)piperidine-2-carbonyl)-N-((1-methyl-1H-indazol-5-yl)methyl)-4-(4-methylbenzyl)pyrrolidine-2-carboxamide]",+++ (fold selectivity values greater than 100),∘∘∘,< 200 nM
"Cc1ccc(C[C@@H]2C[C@@H](C(=O)NCc3ccc4c(cnn4C)c3)N(C(=O)[C@@H]3NCCC[C@@H]3C(=O)N3CCCN(C)CC3)C2)cc1 [Example M05840, (2S,4R)-1-((2R,3S)-3-(4-methyl-1,4-diazepane-1-carbonyl)piperidine-2-carbonyl)-N-((1-methyl-1H-indazol-5-yl)methyl)-4-(4-methylbenzyl)pyrrolidine-2-carboxamide]",+++ (fold selectivity values greater than 100),∘∘∘,< 200 nM
Cc1ccc(C[C@@H]2C[C@@H](C(=O)NCC3CCn4c(nnc4C(F)(F)F)C3)N(C(=O)[C@@H]3NCCC[C@@H]3C(=O)N3CCCC3)C2)cc1 (stereo partly drawn) [Example M05851],+++ (fold selectivity values greater than 100),∘∘∘,800 to 5000 nM
"CCO[C@H]1CCN(C(=O)[C@H]2CCCN[C@H]2C(=O)N2C[C@H](Cc3ccc(C)cc3)C[C@H]2C(=O)NCc2ccc3c(cnn3C)c2)C1 [Example M05853, (2S,4R)-1-((2R,3S)-3-((S)-3-ethoxypyrrolidine-1-carbonyl)piperidine-2-carbonyl)-N-((1-methyl-1H-indazol-5-yl)methyl)-4-(4-methylbenzyl)pyrrolidine-2-carboxamide]",+++ (fold selectivity values greater than 100),∘∘∘,< 200 nM
"Cn1ncc2cc(CNC(=O)[C@@H]3C[C@@H](Cc4ccc(Cl)cc4)CN3C(=O)[C@@H]3NCCC[C@@H]3C(=O)N3CCCC3)ccc21 [Example M05854, (2S,4R)-4-(4-chlorobenzyl)-N-((1-methyl-1H-indazol-5-yl)methyl)-1-((2R,3S)-3-(pyrrolidine-1-carbonyl)piperidine-2-carbonyl)pyrrolidine-2-carboxamide]",+++ (fold selectivity values greater than 100),∘∘∘,200 to 800 nM
"Cc1ccc(C[C@@H]2C[C@@H](C(=O)NCc3ccn4c(C)nnc4c3)N(C(=O)[C@@H]3NCCC[C@@H]3C(=O)N3CCCC3)C2)cc1 [Example M05855, (2S,4R)-N-((3-methyl-[1,2,4]triazolo[4,3-a]pyridin-7-yl)methyl)-4-(4-methylbenzyl)-1-((2R,3S)-3-(pyrrolidine-1-carbonyl)piperidine-2-carbonyl)pyrrolidine-2-carboxamide]",+++ (fold selectivity values greater than 100),∘∘∘,200 to 800 nM
"Cn1nnc2cc(CNC(=O)[C@@H]3C[C@@H](Cc4ccc(C(F)(F)F)nc4)CN3C(=O)[C@@H]3NCCC[C@@H]3C(=O)N3CCCC3)ccc21 [Example M05863, (2S,4R)-N-((1-methyl-1H-benzo[d][1,2,3]triazol-5-yl)methyl)-1-((2R,3S)-3-(pyrrolidine-1-carbonyl)piperidine-2-carbonyl)-4-((6-(trifluoromethyl)pyridin-3-yl)methyl)pyrrolidine-2-carboxamide]",+++ (fold selectivity values greater than 100),∘∘∘,< 200 nM
"Cc1ccc(C[C@@H]2C[C@@H](C(=O)NCC3CCc4c(cnn4C)C3)N(C(=O)[C@@H]3NCCC[C@@H]3C(=O)N3CCCC3)C2)cc1 (stereo partly drawn) [Example M05874, (2S,4R)-N-((1-methyl-4,5,6,7-tetrahydro-1H-indazol-5-yl)methyl)-4-(4-methylbenzyl)-1-((2R,3S)-3-(pyrrolidine-1-carbonyl)piperidine-2-carbonyl)pyrrolidine-2-carboxamide]",+++ (fold selectivity values greater than 100),∘∘∘,200 to 800 nM
"COc1ccc(C[C@@H]2C[C@@H](C(=O)NCc3ccc4c(cnn4C)c3)N(C(=O)[C@@H]3NCCC[C@@H]3C(=O)N3CCCC3)C2)cn1 [Example M05875, (2S,4R)-4-((6-methoxypyridin-3-yl)methyl)-N-((1-methyl-1H-indazol-5-yl)methyl)-1-((2R,3S)-3-(pyrrolidine-1-carbonyl)piperidine-2-carbonyl)pyrrolidine-2-carboxamide]",+++ (fold selectivity values greater than 100),∘∘∘,200 to 800 nM
"Cn1nnc2cc(CNC(=O)[C@@H]3C[C@@H](Cc4cccc5ccccc45)CN3C(=O)[C@@H]3NCCC[C@@H]3C(=O)N3CCCC3)ccc21 [Example M05877, (2S,4R)-N-((1-methyl-1H-benzo[d][1,2,3]triazol-5-yl)methyl)-4-(naphthalen-1-ylmethyl)-1-((2R,3S)-3-(pyrrolidine-1-carbonyl)piperidine-2-carbonyl)pyrrolidine-2-carboxamide]",+++ (fold selectivity values greater than 100),∘∘∘,< 200 nM
